Assay results as given in US9717717B1, “Methods of treating cancer through the inhibition of USP7 and immune system modulation” (Progenra, Inc., priority 2015, dated 2017).

Legend:
[1] = target: T1, USP7core WT (Homo sapiens, UniProt Q93009); assay: LC-MS detection of covalent adduct with purified USP7core WT; format: binding; details: 5 μM USP7core WT, 100 μM compound, room temperature, 4 hrs
T1 construct: 5 μM purified USP7core WT or active site cysteine mutant C223A were incubated with 100 μM Compound 5
Method: (§1) FIG. 4 provides data showing an example of the covalent irreversible nature of disclosed USP7 inhibitors. 5 μM purified USP7core WT or active site cysteine mutant C223A were incubated with 100 μM Compound 5 or DMSO at room temperature for 4 hrs, and then the protein/compound reaction products were mixed with equal volume of 0.1% Trifluoroacetic acid (TFA) before LC-MS injection. The samples were analyzed by reverse-phase liquid chromatography coupled to UV and MS detection (Agilent, 6220 Accurate-Mass Time-of-Flight (TOF) LC/MS). […] FIG. 4 provides data showing an example of the covalent irreversible nature of disclosed USP7 inhibitors. 5 μM purified USP7core WT or active site cysteine mutant C223A were incubated with 100 μM Compound 5 or DMSO at room temperature for 4 hrs, and then the protein/compound reaction products were mixed with equal volume of 0.1% Trifluoroacetic acid (TFA) before LC-MS injection. The samples were analyzed by reverse-phase liquid chromatography coupled to UV and MS detection (Agilent, 6220 Accurate-Mass Time-of-Flight (TOF) LC/MS).

[2] = target: USP7 core C223A (Homo sapiens, UniProt Q93009, C223A); assay: LC-MS detection of covalent adduct with USP7 core active site cysteine mutant C223A; format: binding; details: 5 μM C223A, 100 μM compound, room temperature, 4 hrs
Method: as §1

[3] = target: T2, USP7 (Homo sapiens, UniProt Q93009); assay: DUB activity of USP7 immunoprecipitated from treated Jurkat cells (Ub-EKL assay); format: cell-based; details: for USP7 catalytic activity returned after washout: Jurkat cells exposed for 2 hours
T2 construct: endogenous in cells; host or cells: Jurkat
Method: FIG. 5A-FIG. 5C graphically illustrate that the disclosed USP7 inhibitors of the invention are irreversible inhibitors. Jurkat cells were treated with 10 μM USP7i for indicated time period (FIG. 5A) or pulse treated for 2 h with 10 μM compound 5 (FIG. 5B), washed and incubated for the indicated time period followed by DUB activity measurement of immunoprecipitated USP7 as well as total cell lysate (FIG. 5C) using Ub-EKL assay as described previously (U.S. Pat. No. 8,680,139). A portion of the immunoprecipitated USP7 is separated on 10% SDS-PAGE and immunoblotted with anti-USP7 antibody to detect the level of USP7 protein (shown at the top of graphs in FIG. 5A and FIG. 5B). […] Jurkat cells were exposed to Compound 5 for 2 hours and the compounds were washed away followed by incubation for various time points. Cells were harvested, lysed and their USP7 immunoprecipitated and washed with buffer. […] Jurkat cells were incubated with an exemplary compound of the present invention (e.g., compound 5), washed, and incubated for an additional 0-96 h. USP7 was immunoprecipitated from lysates and USP7 activity measured. […] Total cell deubiquitinase activity can be performed to determine selectivity of these compounds (FIG. 5C). These experiments delineate a simple, powerful biomarker for determining the dose-efficacy relationship in the pre-clinical/clinical evaluation of irreversible USP7 inhibitors. Inhibitors were also tested in cells for effects on various PD markers, including two major USP7 substrates, HDM2 and UHRF1.

[4] = test system: HDM2; assay: Immunoblot of HDM2 level in treated Jurkat cells; format: cell-based; details: immunoblot (FIG. 6)
Method: (§2) FIG. 6 graphically illustrates a decrease in USP7 oncogenic substrates HDM2 and UHRF1 levels in Jurkat cells treated with the USP7i compound 5. 20 μg total cell lysates from each samples were separated on 10% SDS-PAGE and immunoblotted with antibodies against HDM2, UHRF1 and Actin (loading control).
(§3) Jurkat cells were incubated with an exemplary compound of the present invention (e.g., compound 5), washed, and incubated for an additional 0-96 h. USP7 was immunoprecipitated from lysates and USP7 activity measured. […] Total cell deubiquitinase activity can be performed to determine selectivity of these compounds (FIG. 5C). These experiments delineate a simple, powerful biomarker for determining the dose-efficacy relationship in the pre-clinical/clinical evaluation of irreversible USP7 inhibitors. Inhibitors were also tested in cells for effects on various PD markers, including two major USP7 substrates, HDM2 and UHRF1.

[5] = test system: UHRF1; assay: Immunoblot of UHRF1 level in treated Jurkat cells; format: cell-based; details: immunoblot (FIG. 6)
Method: as §2, §3

[6] = test system: Murine Tregs; assay: 3-day Treg suppression assay (CFSE-labeled T effector cell proliferation, FACS); format: cell-based; details: Tregs pre-treated with 10 μM for 2 h, washed (FIG. 7)
Method: FIG. 7 graphically illustrates the inhibition of Treg functions after treatment with USP7 inhibitor compound 5. Murine Tregs were pre-treated with compound 5 for 2 hrs, washed and incubated with carboxyfluorescein succinimidyl ester (CFSE) labeled T effector cells at varying concentrations for 3 days. T effector cell proliferation was monitored using FACS analysis. Percentage proliferation is plotted using Graphpad prism.
Initial in vitro determination of the effect of compounds on the Treg-Teff system was performed by co-culturing drug pretreated Treg cell with Teff cells for three days and determining the Teff proliferation by flow cytometry. The compounds that were active in enhancing Teff growth were then examined for their effect on biomarkers. The most interesting compounds were tested for their effect on tumor growth in immune competent mice inoculated with lung cancer cells subcutaneously.
3-day Treg suppression assay in which isolated Tregs were treated with DMSO or experimental compound, washed and added to wells in which T cell proliferation was induced by CD3 mAb plus APC; % proliferation of CFSE-labeled conventional (Tcon) cells is shown in blue for each Treg:Tcon ratio. […] Flow cytometry confirmed marked or moderate down-regulation of Foxp3 expression by Treg cells exposed to potential inhibitor for 2 hrs. […]

[7] = test system: TC1 lung tumor; assay: TC1 flank tumor model in immunocompetent mice; format: in vivo, B6 mice
Method: Inhibition was statistically significant at the p<0.05 level (**).
USP7 targeting inhibits flank tumor growth via a Treg-dependent mechanism in immunocompetent mice (FIGS. 8A and 8B). Eight week-old B6 mice were injected with 5×10^5 TC1 tumor cells, and 1 week later, when tumors had reached ˜100 mm^3, mice were implanted with 14 day Alzet pumps containing vehicle or USP7i at doses 0.6 mg/kg, 1 mg/kg, and 6 mg/kg. Tumor growth was measured twice weekly for 2 weeks, and the study continued for an additional time period without further dosing. At sacrifice, spleens, draining lymph nodes (DLN), and tumors can be assessed by flow cytometry, histology, immunohistology and qPCR. Such studies can be performed in both immunocompetent and immunodeficient mice.

[8] = pooled analysis of 14 phase I-III studies, various doses; cited from earlier work

T2 sequence (Q93009 whole entry): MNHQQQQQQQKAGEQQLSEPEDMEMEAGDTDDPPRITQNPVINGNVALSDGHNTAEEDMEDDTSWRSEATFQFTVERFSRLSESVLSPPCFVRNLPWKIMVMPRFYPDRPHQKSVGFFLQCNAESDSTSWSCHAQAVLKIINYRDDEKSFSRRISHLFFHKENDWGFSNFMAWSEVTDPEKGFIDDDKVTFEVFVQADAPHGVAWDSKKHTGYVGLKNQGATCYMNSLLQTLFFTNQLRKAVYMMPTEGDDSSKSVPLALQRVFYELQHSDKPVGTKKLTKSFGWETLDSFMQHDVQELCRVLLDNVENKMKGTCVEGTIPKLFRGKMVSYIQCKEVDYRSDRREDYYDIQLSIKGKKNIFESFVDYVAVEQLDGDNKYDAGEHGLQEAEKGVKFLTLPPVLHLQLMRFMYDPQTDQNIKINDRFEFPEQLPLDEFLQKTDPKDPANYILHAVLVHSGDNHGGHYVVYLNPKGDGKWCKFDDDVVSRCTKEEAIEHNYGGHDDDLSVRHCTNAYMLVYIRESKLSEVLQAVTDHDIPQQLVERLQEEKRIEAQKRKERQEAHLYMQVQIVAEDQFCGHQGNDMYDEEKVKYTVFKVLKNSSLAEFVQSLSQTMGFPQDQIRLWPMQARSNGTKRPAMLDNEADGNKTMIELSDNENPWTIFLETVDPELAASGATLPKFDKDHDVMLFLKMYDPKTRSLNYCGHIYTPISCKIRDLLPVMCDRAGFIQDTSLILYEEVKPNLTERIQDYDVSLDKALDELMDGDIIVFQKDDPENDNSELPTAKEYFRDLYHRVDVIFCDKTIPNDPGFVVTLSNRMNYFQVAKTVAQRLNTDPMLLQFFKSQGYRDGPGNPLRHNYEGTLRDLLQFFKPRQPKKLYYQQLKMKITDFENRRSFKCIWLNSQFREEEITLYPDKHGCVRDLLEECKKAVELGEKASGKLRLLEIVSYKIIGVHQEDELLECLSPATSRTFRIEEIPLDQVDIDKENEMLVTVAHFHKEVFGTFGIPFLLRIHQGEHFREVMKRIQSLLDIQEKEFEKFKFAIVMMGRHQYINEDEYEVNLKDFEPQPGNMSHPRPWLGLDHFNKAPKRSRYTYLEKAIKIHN
USP7 core C223A, sequence (Q93009 214-521 C223A limits assumed): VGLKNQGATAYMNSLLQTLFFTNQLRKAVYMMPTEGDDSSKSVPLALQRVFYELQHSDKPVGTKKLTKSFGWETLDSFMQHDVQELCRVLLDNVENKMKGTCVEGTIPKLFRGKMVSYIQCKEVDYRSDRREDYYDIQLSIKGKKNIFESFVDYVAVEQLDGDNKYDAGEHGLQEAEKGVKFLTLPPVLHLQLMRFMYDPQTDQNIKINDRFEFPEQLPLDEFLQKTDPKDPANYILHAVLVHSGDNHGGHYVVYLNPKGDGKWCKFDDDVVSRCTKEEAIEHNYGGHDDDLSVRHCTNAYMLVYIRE
T1 sequence (Q93009 214-521 limits assumed): as the sequence (Q93009 214-521 C223A limits assumed) above, with A10C counted along it

covalent adduct formation with USP7 core [1]	covalent adduct formation with USP7 core C223A [2]	USP7 catalytic activity returned after washout ([3]; washed, after 48 hours)	USP7 catalytic activity returned after washout ([3]; washed, after 72 hours)	USP7 activity after pulse treatment ([3]; Jurkat cells, 10 μM for 2 h, washed, even after 72 h (FIG. 5B))	Compound	catalytic activity of isolated USP7 ([3]; Jurkat cells, incubation with inhibitor for 1 h (FIG. 5A))	HDM2 level [4]	UHRF1 level [5]	Treg suppressive functions [6]	TC1 lung tumor growth ([7]; Day 16, statistically significant p<0.05 (FIG. 8A, 8B))	tumor regression ([7]; TC1 tumors (FIG. 8B))	patients with immune-related adverse effects [8]
formed a covalent adduct	failed to form an adduct	about 55%	68%	prolonged inhibition of USP7 activity	CS(=O)(=O)c1cccc(NC(=O)c2cc([N+](=O)[O-])c(Sc3c(Cl)cncc3Cl)s2)c1 [Compound 5, 5-[(3,5-dichloropyridin-4-yl)sulfanyl]-N-[3-(methylsulfonyl)phenyl]-4-nitrothiophene-2-carboxamide]	significant inhibition of catalytic activity	decrease	decrease	marked impairment of Treg suppressive functions	inhibition of TC1 lung tumor growth	complete tumor regression in several mice	–
–	–	–	–	–	ipilimumab	–	–	–	–	–	–	64%
